Where two headings read alike, the source gives them in different places.

Data set [1] concerns zebrafish embryos. The data set can be described thus: Zebrafish developmental toxicity screening, wild-type fish. The format is in vivo, zebrafish (Danio rerio). The settings on record: for concentration up to which not toxic in zebrafish: data not shown; for EC80: nominal concentration causing morphologic malformations in 80% of WT zebrafish.
A further data set concerns the target T1, zebrafish Ahr2 (Danio rerio, UniProt Q9YGV3).
T1 sequence (Q9YGV3 1-1027): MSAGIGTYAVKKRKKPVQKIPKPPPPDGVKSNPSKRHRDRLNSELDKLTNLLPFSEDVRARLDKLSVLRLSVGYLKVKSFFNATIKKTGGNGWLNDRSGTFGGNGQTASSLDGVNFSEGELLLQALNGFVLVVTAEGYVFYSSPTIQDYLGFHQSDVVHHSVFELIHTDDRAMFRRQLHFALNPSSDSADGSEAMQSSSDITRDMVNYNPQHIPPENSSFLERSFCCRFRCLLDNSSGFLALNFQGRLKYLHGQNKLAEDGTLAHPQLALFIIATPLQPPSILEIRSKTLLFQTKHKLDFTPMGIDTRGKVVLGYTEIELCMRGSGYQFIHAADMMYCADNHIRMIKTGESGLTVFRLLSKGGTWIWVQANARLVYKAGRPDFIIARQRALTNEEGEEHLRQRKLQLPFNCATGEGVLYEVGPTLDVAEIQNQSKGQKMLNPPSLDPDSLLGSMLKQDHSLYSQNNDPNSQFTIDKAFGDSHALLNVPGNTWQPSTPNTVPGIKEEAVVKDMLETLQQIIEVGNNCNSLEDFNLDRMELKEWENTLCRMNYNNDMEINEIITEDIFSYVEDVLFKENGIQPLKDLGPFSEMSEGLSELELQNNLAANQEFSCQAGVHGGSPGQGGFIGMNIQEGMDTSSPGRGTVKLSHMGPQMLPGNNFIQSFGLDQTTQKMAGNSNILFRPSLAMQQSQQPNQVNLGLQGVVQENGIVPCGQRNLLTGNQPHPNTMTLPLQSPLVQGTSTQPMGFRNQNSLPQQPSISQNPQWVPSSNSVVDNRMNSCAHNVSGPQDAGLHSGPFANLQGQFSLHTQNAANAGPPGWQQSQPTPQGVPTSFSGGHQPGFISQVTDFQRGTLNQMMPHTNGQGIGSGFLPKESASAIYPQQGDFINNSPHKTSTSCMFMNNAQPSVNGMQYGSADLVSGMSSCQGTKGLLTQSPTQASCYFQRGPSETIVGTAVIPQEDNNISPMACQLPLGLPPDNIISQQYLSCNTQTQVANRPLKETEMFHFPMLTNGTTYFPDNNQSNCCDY
Format: cell-based. The settings on record: exposures up to 30 μM.

Data set [2] has as its target T2, human AHR (Homo sapiens, UniProt P35869).
T2 sequence (P35869 11-848): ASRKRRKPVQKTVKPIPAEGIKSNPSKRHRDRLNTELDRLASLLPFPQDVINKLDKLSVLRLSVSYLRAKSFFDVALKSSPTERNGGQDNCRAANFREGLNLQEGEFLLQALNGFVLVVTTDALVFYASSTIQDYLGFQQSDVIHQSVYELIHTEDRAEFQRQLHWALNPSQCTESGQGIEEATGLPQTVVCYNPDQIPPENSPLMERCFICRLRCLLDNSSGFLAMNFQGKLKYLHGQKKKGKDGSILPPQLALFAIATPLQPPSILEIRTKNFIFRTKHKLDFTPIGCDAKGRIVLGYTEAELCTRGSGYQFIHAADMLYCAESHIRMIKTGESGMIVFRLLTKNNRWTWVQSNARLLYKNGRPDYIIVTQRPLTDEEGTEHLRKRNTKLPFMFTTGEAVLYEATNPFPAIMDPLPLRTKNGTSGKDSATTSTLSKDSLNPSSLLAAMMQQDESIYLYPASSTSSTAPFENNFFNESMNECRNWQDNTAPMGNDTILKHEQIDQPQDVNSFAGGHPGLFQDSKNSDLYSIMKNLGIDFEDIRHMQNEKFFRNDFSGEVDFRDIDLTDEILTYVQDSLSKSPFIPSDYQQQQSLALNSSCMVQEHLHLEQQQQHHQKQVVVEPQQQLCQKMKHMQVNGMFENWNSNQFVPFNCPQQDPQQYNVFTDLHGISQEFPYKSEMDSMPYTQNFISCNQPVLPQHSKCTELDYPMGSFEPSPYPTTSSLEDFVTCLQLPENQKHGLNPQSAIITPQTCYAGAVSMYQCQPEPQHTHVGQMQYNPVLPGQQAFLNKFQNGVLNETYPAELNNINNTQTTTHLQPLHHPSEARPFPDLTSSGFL
The note with it: exposures up to 30 μM.

Data set [3] concerns cyp1a^cms-gfp zebrafish (EGFP under cyp1a promotor).
Data set [4] in a line: Retene body burden in zebrafish tissue. Format: in vivo.
Data set [5] deals with zebrafish embryos. Briefly: Window of susceptibility developmental toxicity exposures. Format: in vivo.
Data set [6] has as its target T2, human AHR.
A further data set relates to Ahr2. The settings on record: ref Billiard et al. 2002; cited from earlier work.
Data set [7] concerns Ahr2 knockout (ahr2^hu3335) fish. The settings on record: ref Scott et al. 2011; Wilson et al. 2022; cited from earlier work.
A short description of data set [8]: Larval metabolite analysis by LC-IM-MS. The note with it: zebrafish exposed to 26 µM retene.
In another data set the test system is cyp1a^osu4 zebrafish. The format is in vivo. The note with it: TCDD, cyp1a^osu4 fish, 1 h exposure at 6 to 8 hpf.
The test system of the next data set is cyp1a^osu5 zebrafish. The format is in vivo. The note with it: TCDD, cyp1a^osu5 fish; unit not given.
A further data set deals with Cyp1b1^wh4 zebrafish. Format: in vivo. The note with it: TCDD.

Regarding `Cc1cccc2c1ccc1ccccc12` [1-methylphenathrene, 1-methylphenanthrene], the “concentration up to which not toxic in zebrafish” value in the data set on zebrafish embryos [1] is greater than 100 µM.
As for `O=C1c2ccccc2C(=O)c2c1ccc1ccccc21` [Benzanthraquinone], the “Ahr2 activation in zebrafish ZF-4 luciferase reporter cells” value (from here on “Ahr2 activation”) on zebrafish Ahr2 was “direct AHR activators”. Moreover, the “AHR activation in human HuH-7 luciferase reporter cells” value (“AHR activation” below) at human AHR [2] is given as “direct AHR activators”.
As for `c1ccc2c(c1)cc1ccc3cccc4ccc2c1c34` [Benzo[a]pyrene], at zebrafish Ahr2, the “Ahr2 activation” value is listed as “activator”. Also, at human AHR [2], the “AHR activation” value was “activator”.
`c1ccc2c(c1)-c1cccc3c1c-2cc1ccccc13` [Benzo[b]fluoranthene]: the “Ahr2 activation” value at zebrafish Ahr2 is “direct AHR activators”. Besides, the “concentration up to which not toxic in zebrafish” value with zebrafish embryos [1] was greater than 100 µM. Moreover, at human AHR [2], the “AHR activation” value is reported as “direct AHR activators”.
As for `c1ccc2c3c(ccc2c1)-c1cccc2cccc-3c12` [Benzo[j]fluoranthene], at zebrafish Ahr2, the “Ahr2 activation” value is on record as “direct AHR activators”. The EC80 – broadly, the point of the concentration-response curve where the effect stands at 80% – in the data set on zebrafish embryos [1] is listed as “could not be determined”. Besides, the “AHR activation” value on human AHR [2] is on record as “direct AHR activators”.
For `c1ccc2cc3c(cc2c1)-c1cccc2cccc-3c12` [Benzo[k]fluoranthene, Benzo(k)fluoranthene], the “Ahr2 activation” value at zebrafish Ahr2 was “direct AHR activators”. Further, on human AHR [2], the “AHR activation” value is listed as “direct AHR activators”. Moreover, the “EGFP expression at 23 hpf / early hours” value in data set [3] (cyp1a^cms-gfp fish, retene 26 μM, benzo[k]fluoranthene 8.9 μM) is reported as “strong widespread EGFP expression”.
In the case of `Cc1cccc2c1ccc1cc(C(C)C)ccc12` [Retene, 1-methyl-7-isopropylphenanthrene], the “Ahr2 activation” value at zebrafish Ahr2 is listed as “no significant activation”. Moreover, on zebrafish Ahr2 (listed as retene), the “Ahr2 activation” value was “do not respond”. Also, in data set [4] (30 μM retene from 6 hpf), the “increase in body burden from 12 to 24 hpf” value is reported as “greater than 3 fold” and the “tissue burden at 48 hpf” value was “decreased to near-baseline”. For the same molecule, the “24 hpf body burden” value in data set [4] (static exposure to 30 μM retene from 6 hpf) was 31 ng/fish. In the data set with zebrafish embryos [5] (exposure window 6 to 48 hpf, screened at 120 hpf), the BMC50 is 52 ± 4 µM. Also, the developmental toxicity response entry in the data set with zebrafish embryos [5] (exposure window 48 to 120 hpf) is recorded as “little response”. On human AHR [2], the “AHR activation” value was “minimal reporter activity”. At human AHR [6], the “effect of supplementation with human liver s9 on reporter activity” value is “did not lead to an increase in reporter activity”. Moreover, the “EGFP expression at 23 hpf / early hours” value in data set [3] (zebrafish, in vivo) is on record as “control-like EGFP expression”. In the data set on Ahr2, the “times less strong at binding Ahr2 than 1-methylphenanthrene” value is recorded as 3 × and the “times less strong at binding Ahr2 than benzo[b]fluoranthene” value is 73 ×. In addition, the “Ahr2 dependence of toxicity in developing zebrafish” value in data set [7] is listed as “Ahr2 dependent toxicity”. In data set [8], the “retene metabolites in tissue extracts at 12 and 24 hpf” value is recorded as “No retene metabolites were detected”.
Consider `Clc1cc2c(cc1Cl)Oc1cc(Cl)c(Cl)cc1O2` [TCDD, 2,3,7,8-Tetrachlorodibenzo-p-dioxin], for which the BMC50 in the data set on cyp1a^osu4 zebrafish amounted to 0.41 ± 0.07 nM. In the data set on cyp1a^osu5 zebrafish, the BMC is 0.56 ± 0.13. The “change in toxicity versus 5D fish” value in the data set on Cyp1b1^wh4 zebrafish is on record as “no change in toxicity”.
In the data set on zebrafish embryos [1], `O=c1c2ccccc2oc2ccccc12` [Xanthone] showed an EC80 of 52 µM.

Values taken from paper PMC11514837 (Toxicological Sciences, 2024).
